{"source": "ChEMBL document CHEMBL5244255", "about": "“An insight on medicinal attributes of 1,2,4-triazoles” (Eur J Med Chem, 2020)", "key": {"Staphylococcus aureus [1]": {"tested_on": "Staphylococcus aureus", "assay": "Antibacterial activity against Methicillin-resistant Staphylococcus aureus assessed as bacterial growth inhibition incubated for 24 hrs", "type": "functional"}, "Staphylococcus aureus [2]": {"tested_on": "Staphylococcus aureus", "assay": "Antibacterial activity against Staphylococcus aureus 6538 assessed as bacterial growth inhibition incubated for 24 hrs", "type": "functional"}, "DNA gyrase": {"molecular_target": "DNA gyrase (Escherichia coli, UniProt P0AES4+P0AES6)", "assay": "Inhibition of Escherichia coli DNA gyrase supercoiling activity by Microplate Assay kit method", "type": "protein-complex assay"}, "LOX IMVI": {"tested_on": "LOX IMVI", "assay": "Anticancer activity against human LOX IMVI cells assessed as cell growth inhibition incubated for 48 hrs by SRB assay", "type": "functional"}, "HOP-92": {"tested_on": "HOP-92", "assay": "Anticancer activity against human HOP-92 cells assessed as cell growth inhibition incubated for 48 hrs by SRB assay", "type": "functional"}, "NCI-H460": {"tested_on": "NCI-H460", "assay": "Anticancer activity against human NCI-H460 cells assessed as cell growth inhibition incubated for 48 hrs by SRB assay", "type": "functional"}, "HCT-116": {"tested_on": "HCT-116", "assay": "Anticancer activity against human HCT-116 cells assessed as cell growth inhibition incubated for 48 hrs by SRB assay", "type": "functional"}, "A498": {"tested_on": "A498", "assay": "Anticancer activity against human A498 cells assessed as cell growth inhibition incubated for 48 hrs by SRB assay", "type": "functional"}, "U-251": {"tested_on": "U-251", "assay": "Anticancer activity against human U-251 cells assessed as cell growth inhibition incubated for 48 hrs by SRB assay", "type": "functional"}, "[3]": {"tested_on": "Xanthomonas oryzae pv. oryzae", "assay": "Antibacterial activity against Xanthomonas oryzae pv. oryzae assessed as bacterial growth inhibition", "type": "functional, organism-based"}, "[4]": {"tested_on": "Xanthomonas oryzae pv. oryzae", "assay": "Antibacterial activity against Xanthomonas oryzae pv. oryzae assessed as bacterial growth inhibition by turbidimetric method", "type": "functional, organism-based"}, "Mus musculus [5]": {"species": "Mus musculus", "assay": "Antiseizure activity against ScPTZ-induced seizure in mouse", "type": "functional", "conditions": "route sc"}, "Mus musculus [6]": {"species": "Mus musculus", "assay": "Anticonvulsant activity in mouse assessed as MES-induced seizures measured after 30 mins", "type": "functional", "conditions": "0.5 h"}, "Staphylococcus aureus [7]": {"tested_on": "Staphylococcus aureus", "assay": "Antibacterial activity against Staphylococcus aureus assessed as bacterial growth inhibition incubated for 16 hrs", "type": "functional"}, "Candida albicans": {"tested_on": "Candida albicans", "assay": "Antifungal activity against Candida albicans assessed as fungal growth inhibition incubated for 16 hrs", "type": "functional"}, "Rattus norvegicus": {"tested_on": "Rattus norvegicus", "assay": "Antiinflammatory activity in rat assessed as reduction in xylene induced edema at 10 mg/kg, po by CPE test relative to control", "type": "functional", "set-up": "scale not given: the % may be the effect or the level left"}, "[8]": {"tested_on": "Middle East respiratory syndrome-related coronavirus", "assay": "Antiviral activity of Middle East respiratory syndrome coronavirus", "type": "functional, organism-based"}, "[9]": {"tested_on": "Mycobacterium tuberculosis", "assay": "Antimycobacterial activity against Mycobacterium tuberculosis H37Rv by test tube dilution technique", "type": "functional"}, "[10]": {"assay": "Inhibition of BRAF V600E mutant (unknown origin) incubated for 25 mins in presence of ATP by ELISA assay", "set-up": "species or system Homo sapiens"}, "[11]": {"molecular_target": "Epidermal growth factor receptor (Homo sapiens, UniProt P00533)", "sequence (P00533 whole entry)": "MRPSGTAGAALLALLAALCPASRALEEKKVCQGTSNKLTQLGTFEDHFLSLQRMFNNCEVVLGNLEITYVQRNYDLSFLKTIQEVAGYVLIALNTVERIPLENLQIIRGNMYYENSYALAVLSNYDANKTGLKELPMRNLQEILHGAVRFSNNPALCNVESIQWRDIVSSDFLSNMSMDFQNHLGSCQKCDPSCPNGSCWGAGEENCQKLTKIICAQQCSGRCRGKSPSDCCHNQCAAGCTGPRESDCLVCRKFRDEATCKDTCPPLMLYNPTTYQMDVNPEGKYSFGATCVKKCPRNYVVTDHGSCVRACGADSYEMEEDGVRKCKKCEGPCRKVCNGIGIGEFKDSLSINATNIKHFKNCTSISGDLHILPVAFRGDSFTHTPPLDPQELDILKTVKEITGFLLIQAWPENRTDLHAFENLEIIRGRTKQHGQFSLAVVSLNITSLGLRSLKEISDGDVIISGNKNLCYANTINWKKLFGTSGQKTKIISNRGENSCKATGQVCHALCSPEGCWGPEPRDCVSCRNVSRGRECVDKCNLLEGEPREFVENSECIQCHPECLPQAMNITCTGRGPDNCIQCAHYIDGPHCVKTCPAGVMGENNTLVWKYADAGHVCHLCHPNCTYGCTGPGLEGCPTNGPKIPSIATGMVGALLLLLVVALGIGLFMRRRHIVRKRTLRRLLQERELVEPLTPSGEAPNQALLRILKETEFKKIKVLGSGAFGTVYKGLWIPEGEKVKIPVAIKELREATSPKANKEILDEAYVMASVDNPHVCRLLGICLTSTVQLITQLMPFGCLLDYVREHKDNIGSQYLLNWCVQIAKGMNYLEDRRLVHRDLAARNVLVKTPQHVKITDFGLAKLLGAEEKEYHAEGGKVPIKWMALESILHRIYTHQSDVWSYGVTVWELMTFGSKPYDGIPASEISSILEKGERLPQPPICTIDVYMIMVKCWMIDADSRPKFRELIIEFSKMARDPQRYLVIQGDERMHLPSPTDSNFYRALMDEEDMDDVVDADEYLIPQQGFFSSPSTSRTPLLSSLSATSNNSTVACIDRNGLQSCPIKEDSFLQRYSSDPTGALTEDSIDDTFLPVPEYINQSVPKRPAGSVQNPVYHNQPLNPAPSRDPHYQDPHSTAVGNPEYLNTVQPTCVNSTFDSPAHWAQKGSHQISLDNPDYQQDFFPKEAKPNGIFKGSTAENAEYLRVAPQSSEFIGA", "assay": "Inhibition of EGFR (unknown origin) […] insect sf9 cells incubated for 1 hrs in presence of ATP"}, "Tubulin": {"molecular_target": "Tubulin", "assay": "Inhibition of tubulin (unknown origin)", "type": "protein-complex assay, Homo sapiens"}, "[12]": {"assay": "Protection index, ratio of TD50 for neurotoxicity in ip dosed mouse to ED50 for anticonvulsant activity in ip dosed mouse", "type": "toxicity, organism-based", "conditions": "in vivo, read-out: Ratio TD50/ED50"}, "Mus musculus [13]": {"tested_on": "Mus musculus", "assay": "Anticonvulsant activity in ip dosed mouse assessed as protection against PTZ-induced seizure", "type": "functional"}, "Mus musculus [14]": {"tested_on": "Mus musculus", "assay": "Anticonvulsant activity in ip dosed mouse assessed as MES-induced seizures", "type": "functional"}, "MCF7 [15]": {"tested_on": "MCF7", "assay": "Anticancer activity against human MCF7 cells assessed a cell growth inhibition incubated for 48 hrs by SRB assay", "type": "functional, cell-based", "conditions": "MCF7, 48 h"}, "[16]": {"molecular_target": "Vascular endothelial growth factor receptor 2 (Homo sapiens, UniProt P35968)", "sequence (P35968 whole entry)": "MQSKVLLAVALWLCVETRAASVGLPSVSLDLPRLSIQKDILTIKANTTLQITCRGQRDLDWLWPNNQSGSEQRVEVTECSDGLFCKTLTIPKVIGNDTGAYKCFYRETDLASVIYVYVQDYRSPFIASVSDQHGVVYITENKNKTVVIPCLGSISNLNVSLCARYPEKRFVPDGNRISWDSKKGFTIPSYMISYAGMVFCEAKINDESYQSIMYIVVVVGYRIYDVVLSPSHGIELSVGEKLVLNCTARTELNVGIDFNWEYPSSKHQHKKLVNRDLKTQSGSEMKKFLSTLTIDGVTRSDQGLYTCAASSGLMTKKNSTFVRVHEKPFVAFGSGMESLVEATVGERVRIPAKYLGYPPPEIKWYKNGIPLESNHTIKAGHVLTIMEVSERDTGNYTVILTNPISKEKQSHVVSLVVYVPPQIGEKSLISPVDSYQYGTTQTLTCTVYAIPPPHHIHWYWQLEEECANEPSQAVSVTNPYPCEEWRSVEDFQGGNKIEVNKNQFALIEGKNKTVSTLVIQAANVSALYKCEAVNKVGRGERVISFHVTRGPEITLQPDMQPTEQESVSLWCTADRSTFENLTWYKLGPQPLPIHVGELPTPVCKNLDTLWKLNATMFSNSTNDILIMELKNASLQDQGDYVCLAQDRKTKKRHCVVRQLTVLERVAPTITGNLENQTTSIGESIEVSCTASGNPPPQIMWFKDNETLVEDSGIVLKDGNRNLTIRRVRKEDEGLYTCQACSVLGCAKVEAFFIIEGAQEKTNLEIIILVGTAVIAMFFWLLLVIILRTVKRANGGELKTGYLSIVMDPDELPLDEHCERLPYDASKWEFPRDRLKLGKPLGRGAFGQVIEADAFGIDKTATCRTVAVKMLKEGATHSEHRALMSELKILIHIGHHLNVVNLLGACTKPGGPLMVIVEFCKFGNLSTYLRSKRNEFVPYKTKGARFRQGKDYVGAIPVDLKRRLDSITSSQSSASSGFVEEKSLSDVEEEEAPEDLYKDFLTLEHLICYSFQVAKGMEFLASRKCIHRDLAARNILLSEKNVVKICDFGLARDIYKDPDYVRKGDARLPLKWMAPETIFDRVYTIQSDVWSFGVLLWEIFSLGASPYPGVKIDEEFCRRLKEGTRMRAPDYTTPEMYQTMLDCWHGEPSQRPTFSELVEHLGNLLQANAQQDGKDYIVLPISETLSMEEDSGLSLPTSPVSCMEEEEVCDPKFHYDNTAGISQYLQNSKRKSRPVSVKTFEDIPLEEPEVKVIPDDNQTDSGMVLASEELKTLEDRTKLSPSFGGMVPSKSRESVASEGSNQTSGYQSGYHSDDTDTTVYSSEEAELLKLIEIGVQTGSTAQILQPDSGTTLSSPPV", "assay": "Inhibition of human VEGFR2 using biotinylated poly-GluTyr as substrate at 117 ng/ml incubated for 24 hrs in presence of ATP by ELISA assay relative to control"}, "A549": {"tested_on": "A549", "assay": "Antiproliferative activity against human A549 cells assessed as cell growth inhibition by MTT assay", "type": "functional, cell-based"}, "MDA-MB-231": {"tested_on": "MDA-MB-231", "assay": "Antiproliferative activity against human MDA-MB-231 cells assessed as cell growth inhibition by MTT assay", "type": "functional, cell-based"}, "K562": {"tested_on": "K562", "assay": "Antiproliferative activity against human K562 cells assessed as cell growth inhibition by MTT assay", "type": "functional, cell-based"}, "SMMC-7721": {"tested_on": "SMMC-7721", "assay": "Anticancer activity against human SMMC-7721 cells assessed as cell growth inhibition incubated for 48 hrs by CCK8 assay", "type": "functional, cell-based", "conditions": "SMMC-7721, 48 h"}, "MCF7 [17]": {"tested_on": "MCF7", "assay": "Antiproliferative activity against human MCF7 cells assessed as cell viability incubated for 48 hrs by MTT assay", "type": "functional, cell-based", "conditions": "MCF7, 48 h"}}, "data": [{"smiles": "CSc1nc(Cl)cc(Sc2nnc(-c3cc(C(F)(F)F)cc(C(F)(F)F)c3)[nH]2)n1", "values": [{"measurement": "MIC", "setting": "Staphylococcus aureus [1]", "result": 0.75, "unit": "mg/L"}, {"measurement": "MIC", "setting": "Staphylococcus aureus [2]", "result": 1.8, "unit": "µM"}]}, {"smiles": "CCn1cc(-c2nc(/N=C/c3ccc(F)cc3)n[nH]2)c(=O)c2ccc(C)nc21", "values": [{"measurement": "IC50", "setting": "DNA gyrase", "result": 9.75, "unit": "µM"}]}, {"smiles": "Clc1ccccc1-c1nnc2c(Cc3ccccc3)nc3ccccc3n12", "values": [{"measurement": "GI50", "setting": "LOX IMVI", "result": 5.18, "unit": "µM"}, {"measurement": "GI50", "setting": "HOP-92", "result": 3.91, "unit": "µM"}, {"measurement": "GI50", "setting": "NCI-H460", "result": 3.45, "unit": "µM"}, {"measurement": "GI50", "setting": "HCT-116", "result": 3.49, "unit": "µM"}, {"measurement": "GI50", "setting": "A498", "result": 1.8, "unit": "µM"}, {"measurement": "GI50", "setting": "U-251", "result": 1.96, "unit": "µM"}]}, {"smiles": "CCn1cc(-c2nc(/N=C/c3ccc(Br)cc3)n[nH]2)c(=O)c2cc(Br)c(C)nc21", "values": [{"measurement": "IC50", "setting": "DNA gyrase", "result": 6.22, "unit": "µM"}]}, {"smiles": "S=c1[nH]nc(NCNc2n[nH]c(=S)s2)s1", "values": [{"measurement": "EC50", "setting": "[3]", "result": 85.6, "unit": "mg/L"}, {"measurement": "EC50", "setting": "[4]", "result": 89.8, "unit": "mg/L"}]}, {"smiles": "O=C(CSc1nc[nH]n1)Nc1nc2ccc(OCc3ccc(F)cc3)cc2s1", "values": [{"measurement": "ED50", "setting": "Mus musculus [5]", "result": 52.8, "unit": "mg/kg"}, {"measurement": "ED50", "setting": "Mus musculus [6]", "result": 54.8, "unit": "mg/kg"}]}, {"smiles": "O=C(NCc1nnc(S)n1/N=C/c1ccc([N+](=O)[O-])cc1)c1ccccc1", "values": [{"measurement": "MIC", "setting": "Staphylococcus aureus [7]", "result": 3.12, "unit": "mg/L"}, {"measurement": "MIC", "setting": "Candida albicans", "result": 3.12, "unit": "mg/L"}]}, {"smiles": "Fc1cc(F)cc(-c2nn3c(CN4c5ccccc5Sc5ccccc54)nnc3s2)c1", "values": [{"measurement": "Activity", "setting": "Rattus norvegicus", "result": 82.24, "unit": "%"}]}, {"smiles": "Sc1nnc(NNc2ccc(Cl)cc2)n1NC1C=CCC1", "note": "(stereo not drawn)", "values": [{"measurement": "IC50", "setting": "[8]", "result": 0.51, "unit": "µM"}]}, {"smiles": "Fc1cc(Cl)cc(-c2nn3c(CN4c5ccccc5Sc5ccccc54)nnc3s2)c1", "values": [{"measurement": "Activity", "setting": "Rattus norvegicus", "result": 83.06, "unit": "%"}]}, {"smiles": "O=C(CSc1nc[nH]n1)Nc1nc2ccc(OCc3cccc(F)c3)cc2s1", "values": [{"measurement": "ED50", "setting": "Mus musculus [5]", "result": 76, "unit": "mg/kg"}, {"measurement": "ED50", "setting": "Mus musculus [6]", "result": 50.8, "unit": "mg/kg"}]}, {"smiles": "Fc1ccc(-c2nn3c(COc4cnccn4)nnc3s2)cc1", "values": [{"measurement": "MIC", "setting": "[9]", "result": 1, "unit": "mg/L"}]}, {"smiles": "COc1ccc(C(=O)n2nc(-c3cccnc3)nc2N)cc1", "values": [{"measurement": "IC50", "setting": "[10]", "result": 1.9, "unit": "µM"}, {"measurement": "IC50", "setting": "[11]", "result": 3.6, "unit": "µM"}, {"measurement": "IC50", "setting": "Tubulin", "result": 0.957, "unit": "µM"}]}, {"smiles": "COc1ccc(/C=N/n2c(S)nnc2CNC(=O)c2ccc(C)cc2)cc1OC", "values": [{"measurement": "MIC", "setting": "Staphylococcus aureus [7]", "result": 3.12, "unit": "mg/L"}, {"measurement": "MIC", "setting": "Candida albicans", "result": 3.12, "unit": "mg/L"}]}, {"smiles": "Fc1ccc(-c2csc3nncn23)cc1", "values": [{"measurement": "selectivity ratio", "setting": "[12]", "result": 1.7}, {"measurement": "ED50", "setting": "Mus musculus [13]", "result": 49.1, "unit": "mg/kg"}, {"measurement": "ED50", "setting": "Mus musculus [14]", "result": 49.1, "unit": "mg/kg"}]}, {"smiles": "O=c1nc2c3c(ncn2[nH]1)Oc1c(c(=O)oc2ccccc12)C3c1ccc(F)cc1", "note": "(stereo not drawn)", "values": [{"measurement": "IC50", "setting": "MCF7 [15]", "result": 7.9, "unit": "mg/L"}, {"measurement": "inhibition", "setting": "[16]", "result": 94, "unit": "%"}]}, {"smiles": "c1cncc(-c2nn3c(COc4cnccn4)nnc3s2)c1", "values": [{"measurement": "MIC", "setting": "[9]", "result": 0.4, "unit": "mg/L"}]}, {"smiles": "Cc1nn(-c2ccc(Br)cc2)c(=O)n1-n1c(-c2cc3ccccc3oc2=O)cs/c1=N\\c1ccc(Cl)cc1", "values": [{"measurement": "IC50", "setting": "A549", "result": 0.16, "unit": "mg/L"}, {"measurement": "IC50", "setting": "MDA-MB-231", "result": 0.16, "unit": "mg/L"}, {"measurement": "IC50", "setting": "K562", "result": 0.16, "unit": "mg/L"}]}, {"smiles": "CC(C)SSc1nnc(-c2ccccc2)n1N", "values": [{"measurement": "IC50", "setting": "SMMC-7721", "result": 2.97, "unit": "µM"}]}, {"smiles": "O=C(O)c1ccc(-n2nc(Oc3ccccc3)nc2NC(=S)NC(=O)c2ccccc2)cc1", "values": [{"measurement": "IC50", "setting": "MCF7 [17]", "result": 23.9, "unit": "µM"}]}]}
